The source of these data is patent publication US10441681B2, “Materials and methods for nerve grafting” (University of Florida Research Foundation, Inc., priority 2001, dated 2019).

The subject of assay [1] is embryonic chick DRG neurons. Nature of the assay: Cryoculture bioassay (neurite outgrowth) on sections of acellular rat nerve segments. Type of assay: cell-based. The protocol:
(§1) Cryoculture is a neurite outgrowth assay in which neurons are cultured directly on fresh/frozen nerve sections and was performed as described previously (Ferguson T A et al. [2000] Mol Cell Neurosci, 16:157-167). Briefly, chondroitinase- and vehicle-treated nerve segments were sectioned at 20 μm, mounted on sterile, aminopropyltriethoxysilane (APTS)-coated coverslips and stored at −20° C. until used. Where indicated, sections were treated with chondroitinase ABC (0.1 unit/ml) or vehicle (50 mM Tris-HCl, pH 8.0), containing 50 mM NaCl) for 2 h at 37° C. Purified dorsal root ganglionic (DRG) neurons from day 8 chick embryos were seeded directly on the nerve sections in a defined N2 medium (Bottenstein J E et al. [1980] Exp Cell Res 125:183-190) containing 10 ng/ml nerve growth factor. Cryoculture assays were terminated after 24 h of incubation by fixation with 100% methanol. Neuritic growth by DRG neurons was accessed by GAP-43 immunofluorescent labeling. Epifluorescent photomicrographs were acquired as described for tissue sections. Neurite lengths were measured directly using IMAGE-PRO PLUS software (MEDIA CYBERNETICS, Silver Springs, Md.). At least 250 neurons with neurites greater than one cell body (˜15 μm) were scored for each condition in each experiment.
Inactivation of inhibitory CSPG in chondroitinase-treated acellular nerve was determined by cryoculture bioassay. Embryonic chick DRG neurons were seeded onto sections of prepared nerve segments and the neurite-promoting activity was assessed by scoring neurite growth. On sections of acellular nerve pretreated en bloc with vehicle only the average neurite length was 49 μm. Neurite growth on acellular nerve pretreated en bloc with chondroitinase averaged 96 μm, representing a 95% increase compared to the control condition. To determine if the en bloc chondroitinase treatment was thorough, cryoculture assays were performed on nerve tissues treated with chondroitinase after sectioning (post-treatment).

Assay [2] concerns CSPG. Nature of the assay: CSPG neoepitope immunostaining of human nerve segments treated with chondroitinase. How it is done:
Axonal regeneration was assessed by GAP-43 immunofluorescence and digital image analysis. Tissue sections mounted on slides were washed with PBS and then treated with 0.5% Triton X-100 in PBS for 10 min. The sections were treated with blocking buffer (10% serum in PBS+0.1% Triton X-100) and then incubated overnight at 4° C. with primary antibodies (diluted in blocking buffer). Bound antibodies were labeled with swine anti-rabbit immunoglobulins (DAKO CORPORATION, Carpinteria, Calif.) or goat anti-mouse immunoglobulins (Sigma) FITC-conjugated secondary antibodies for 1 h at room temperature in darkness. The anti-mouse secondary antibody was preadsorbed with rat serum prior to use. The sections were washed, postfixed with 4% paraformaldehyde in PBS, rinsed, and coverslipped in fluorescent mounting media. Affinity-purified rabbit anti-GAP-43 peptide antibody was produced using known methods (Ferguson T A et al. [2000] Mol Cell Neurosci, 16:157-167) and was used at 2 μg/ml. Polyclonal antibody 1918 (CHEMICON INTERNATIONAL, Temecula, Calif.) (1:1000) binds only to the unsaturated disaccharide unit that remains attached to the linkage region of CSPG core protein exposed by digestion with chondroitinase ABC (Bertolotto A et al. [1986] J Neurol Sci 73:233-244). Polyclonal anti-EHS laminin antibody (Sigma) (1:1000) was used to label basal laminae. […]

The test system of another assay is chick DRG neurons. Nature of the assay: Cryoculture assay using human nerve segments. Format: cell-based. As to conditions: 24 h. How it is done: as §1
Many of the experiments described in the examples above performed using rat nerves also have been replicated using human nerve. […]

The test system of assay [3] is CSPG. The assay can be described thus: CSPG-neoepitope immunolabeling of injured sciatic nerve after in vivo chondroitinase injection. Also on record: species or system rat. As to conditions: single injection 1 U in 2 μl, 2 mm distal to injury; 4 days (transection) or 2 days (crush). The protocol:
All surgical procedures were performed according to Institutional Animal Care and Use Committee (IACUC) approved protocols. Young adult SPRAGUE DAWLEY rats (HARLAN Indianapolis, Ind.) were deeply anesthetized with xylazine (15 mg/kg, i.m.) followed by ketamine-HCl (110 mg/kg, i.p.). Six animals received bilateral nerve crush injuries. Sciatic nerves were exposed and then crushed with firm pressure for thirty seconds with a DUMONT #5 forceps at a site 4 mm distal to the tendon of the internal obdurator. The crush site was marked with an epineurial suture. In a separate set of experiments, eight rats received bilateral sciatic nerve transection injuries using serrated scissors. The proximal and distal stumps were […] by epineurial neurorrhaphy using 9-0 ETHILON sutures. Fibrin glue (fibrinogen and thrombin) was then applied to stabilize the union. In both injury models, the right sciatic nerves were injected 2-mm distal to the injury with chondroitinase ABC (1 U in 2 μl) (high-purity, protease-free; SIGMA CHEMICAL CO., St. Louis, Miss.). Left sciatic nerves (with the same injury as the right side) were injected with vehicle alone (0.1% bovine serum albumin in PBS). Muscle incisions were sutured and the skin closed with metal clips. […]
Axonal regeneration was assessed by GAP-43 immunofluorescence and digital image analysis. […]

As for chondroitinase ABC, the “increase in neurite growth compared to the control condition” value in assay [1] (acellular nerve pretreated en bloc vs en bloc vehicle) was determined as 95%. Moreover, the average neurite length in assay [1] (acellular nerve pretreated en bloc, DRG neurons grown 24 h) was determined as 96 μm. For the same substance, the “increase in neurite-promoting activity by post-treatment of sections” value in assay [1] (acellular nerve treated en bloc with vehicle only, sections post-treated with chondroitinase) is 86%. For the same substance, the “effect of post-treatment on sections from en bloc chondroitinase-treated nerve grafts” value in assay [1] (post-treatment after sectioning) was “only a slight additive effect”. Further, the “CSPG side chain degradation (neoepitope labeling)” value in the assay with CSPG [2] is “effectively degraded”. Also, in the assay with chick DRG neurons, the “growth-promoting properties of human nerves” value is on record as “increased”. The “CSPG degradation in extracellular matrix around the injection site” value in the assay on CSPG [3] is “substantially, if not completely, degraded CSPG”.
